The target in assay [1] is recombinant human Myt1 (full length PKMYT1) (Homo sapiens (Human), UniProt Q99640). Put plainly: Recombinant human Myt1 kinase assay (ADP-Glo). In kind it is biochemical. The following applies: 10 μM ATP. In a few lines:
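ADP-Glo luminescence measured ATP hydrolysis by recombinant full-length PKMYT1 (18 nM) after 60 min at 30 °C with 10 μM ATP. Compounds in 0.5% DMSO were added to the enzyme 15 min before ATP, at 22 °C, in HEPES/MgCl2/MnCl2 buffer. IC50 and percent maximal inhibition were derived.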

For assay [2], the system named is PKMYT1 (CDK1 pThr14) in FUOV1 cells. Put plainly: PKMYT1 cell-based activity assay, CDK1 pThr14 AlphaLISA in FUOV1 cells. The following applies: read-out: FUOV-1 CDK1 pThr14 IC50. In short, it runs like this:
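IC50 was derived from AlphaLISA signal (excitation 680 nm, emission 615 nm) for phospho-Thr14 CDK1 in lysates. The detection antibodies were rabbit anti-pThr14 and mouse anti-total CDK1, each at 5 nM. FUOV1 ovarian cells were exposed to compound for 2 hours before lysis.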

Where two headings read alike, the source gives them in different places.

Chain of recombinant human Myt1 (full length PKMYT1) (Q99640 whole entry): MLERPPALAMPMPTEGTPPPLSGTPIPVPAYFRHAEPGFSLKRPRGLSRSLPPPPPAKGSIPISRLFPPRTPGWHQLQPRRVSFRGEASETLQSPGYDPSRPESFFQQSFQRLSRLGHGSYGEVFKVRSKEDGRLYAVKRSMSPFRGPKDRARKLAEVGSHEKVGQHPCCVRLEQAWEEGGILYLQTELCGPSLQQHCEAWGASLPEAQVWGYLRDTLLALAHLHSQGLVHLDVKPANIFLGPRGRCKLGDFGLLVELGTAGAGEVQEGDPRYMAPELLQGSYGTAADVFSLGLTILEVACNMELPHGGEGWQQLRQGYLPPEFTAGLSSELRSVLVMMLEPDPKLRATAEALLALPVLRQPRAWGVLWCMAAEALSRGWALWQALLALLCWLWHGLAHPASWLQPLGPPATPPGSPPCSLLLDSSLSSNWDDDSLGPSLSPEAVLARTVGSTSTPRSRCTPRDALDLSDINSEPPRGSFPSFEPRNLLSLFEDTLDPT

Regarding `Cc1ccc(O)c(C)c1-c1cc(-c2cc(C(F)(F)F)ccn2)nc(C(N)=O)c1N` [Compound 67], the IC50 in assay [1] is 2 nM; in assay [2] (2 h, 2 h incubation), 272 nM.

For the compound `Cc1ccc2[nH]ncc2c1-c1cc(-c2ccnc(OCC3CCCO3)n2)nc(C(N)=O)c1N` (centres unmarked) [Compound 211], the IC50 in assay [1] was found to be 7 nM; in assay [2] (2 h, 2 h incubation), 184 nM.

Take `Cc1ccc2[nH]ncc2c1-c1nc(-c2cccnc2Nc2ccccc2)nc(C(N)=O)c1N` [Compound 607]: the IC50 in assay [1] was 6 nM; in assay [2] (2 h, 2 h compound incubation), 319 nM.

For the compound `Cc1ccc2[nH]ncc2c1-c1nc(-c2ccc3c(c2)OCO3)nc(C(N)=O)c1N` [Compound 297], the IC50 was found to be 9 nM in assay [1] and 422 nM in assay [2] (2 h, 2 h incubation).

In the case of `Cc1ccc2[nH]ncc2c1-c1nc(-c2cn(C)nc2NC2CCOCC2)nc(C(N)=O)c1N` [Compound 845], the IC50 came out at 4 nM in assay [1] and 58 nM in assay [2] (2 h, 2 hours with compound).

As for `Cc1ccc2[nH]ncc2c1-c1cc(-c2ccnc(NC3CC3)n2)nc(C(N)=O)c1N` [Compound 163], the IC50 in assay [1] turned out to be 11 nM; in assay [2] (2 h, 2 h incubation), 436 nM.

As to `Cc1ccc2[nH]ncc2c1-c1cc(-c2cccc(N[C@H](CO)c3ccccc3)n2)nc(C(N)=O)c1N` [Compound 274], the IC50 in assay [1] turned out to be 3 nM; in assay [2] (2 h, 2 h incubation) it was 136 nM.

For `Cc1ccc2[nH]ncc2c1-c1nc(-c2cnccc2NC(=O)OC(C)(C)C)nc(C(N)=O)c1N` [Compound 465], the IC50 in assay [1] is 5 nM; in assay [2] (2 h, 2 h compound incubation), 233 nM.

`Cc1ccc(O)c(C)c1-c1nc(-c2ccccc2NC(=O)C2(C)CC2)cc(C(N)=O)c1N` [Compound 428]: the IC50 in assay [1] is 3 nM; in assay [2] (2 h, 2 h compound incubation) it was 26 nM.

Regarding `COC(COc1cccc(-c2cc(-c3c(C)ccc4[nH]ncc34)c(N)c(C(N)=O)n2)n1)C1CC1` (centres unmarked) [Compound 344], the IC50 was found to be 7 nM in assay [1] and 983 nM in assay [2] (2 h, 2 h incubation).

Regarding `Cc1cccc(Nc2ncccc2-c2nc(C(N)=O)c(N)c(-c3c(C)ccc4[nH]ncc34)n2)n1` [Compound 626], the IC50 in assay [1] is 5 nM; in assay [2] (2 h, 2 h compound incubation) it was 530 nM.

On to `Cc1ccc2[nH]ncc2c1-c1nc(-c2ccccc2NC(=O)C23CC(F)(C2)C3)nc(C(N)=O)c1N` [Compound 448], for which the IC50 in assay [1] turned out to be 7 nM; in assay [2] (2 h, 2 h compound incubation) it was 112 nM.

`CC[C@@H](COc1nccc(-c2cc(-c3c(C)ccc4[nH]ncc34)c(N)c(C(N)=O)n2)n1)OC` (atropisomer, axis not shown) [Compound 334]: the IC50 in assay [1] was found to be 400 nM; in assay [2] (2 h, 2 h incubation), 1180 nM.

With `Cc1ccc2[nH]ncc2c1-c1cc(-c2cccc(OCc3cncnc3)n2)nc(C(N)=O)c1N` [Compound 262], the IC50 was determined as 7 nM in assay [1] and 507 nM in assay [2] (2 h, 2 h incubation).

As to `Cc1ccc(O)c(C)c1-c1cc(-c2nccs2)nc(C(N)=O)c1N` [Compound 13, 3-amino-4-(3-hydroxy-2,6-dimethylphenyl)-6-(thiazol-2-yl)picolinamide], the IC50 in assay [1] was below 3.5 nM; in assay [2] (2 h, 2 h incubation), 64 nM.

On to `CC[C@H](COc1nccc(-c2cc(-c3c(C)ccc4[nH]ncc34)c(N)c(C(N)=O)n2)n1)OC` (atropisomer, axis not shown) [Compound 333], for which the IC50 was 3 nM in assay [1] and 21 nM in assay [2] (2 h, 2 h incubation).

Take `COCC(=O)Nc1ccccc1-c1nc(C(N)=O)c(N)c(-c2c(C)ccc3[nH]ncc23)n1` [Compound 332, 5-amino-2-(2-(2-methoxyacetamido)phenyl)-6-(5-methyl-1H-indazol-4-yl)pyrimidine-4-carboxamide]: the IC50 worked out at 6 nM in assay [1] and 56 nM in assay [2] (2 h, 2 h incubation).

As for `Cc1ccc(O)c(C)c1-c1cc(-c2cccc(OC3CCOCC3)n2)nc(C(N)=O)c1N` [Compound 57], the IC50 is 7 nM in assay [1] and 46 nM in assay [2] (2 h, 2 h incubation).

Regarding `Cc1ccc(O)c(C)c1-c1cc(-c2ccccn2)cc(C(N)=O)c1N` [Compound 80], the IC50 in assay [1] is 8 nM; in assay [2] (2 h, 2 h incubation), 259 nM.

Consider `Cc1ccc(O)c(C)c1-c1cc(-c2cnccn2)nc(C(N)=O)c1N` [Compound 26], for which the IC50 is 3 nM in assay [1] and 76 nM in assay [2] (2 h, 2 h incubation).

As for `Cc1ccc2[nH]ncc2c1-c1cc(-c2ccnc(OCCc3ccn(C)n3)n2)nc(C(N)=O)c1N` [Compound 312], the IC50 amounted to 9 nM in assay [1] and 596 nM in assay [2] (2 h, 2 h incubation).

On to `Cc1ccc2[nH]ncc2c1-c1nc(-c2ccc(F)cc2Nc2ccnc(C#N)c2)nc(C(N)=O)c1N` [Compound 620], for which the half-inhibitory concentration (IC50) in assay [1] came out at 3 nM; in assay [2] (2 h, 2 h compound incubation), 41 nM.

Consider `Cc1ccc2[nH]ncc2c1-c1nc(-c2cccnc2NC(=O)C(C)(C)C)nc(C(N)=O)c1N` [Compound 805, 5-amino-6-(5-methyl-1H-indazol-4-yl)-2-(2-pivalamidopyridin-3-yl)pyrimidine-4-carboxamide], for which the IC50 in assay [1] was determined as 3 nM; in assay [2] (2 h, 2 hours with compound), 71 nM.

Consider `COC(C)(C)COc1nccc(-c2cc(-c3c(C)ccc4[nH]ncc34)c(N)c(C(N)=O)n2)n1` [Compound 327], for which the IC50 in assay [1] worked out at 6 nM; in assay [2] (2 h, 2 h incubation), 351 nM.

As for `CC(C)(C)C(=O)Nc1ccccc1-c1nc(C(N)=O)c(N)c(-c2c(Cl)ccc3[nH]ncc23)n1` [Compound 403], the IC50 in assay [1] came out at 2 nM; in assay [2] (2 h, 2 h compound incubation), 14 nM.

On to `COC[C@H](C)Oc1nccc(-c2cc(-c3c(C)ccc4[nH]ncc34)c(N)c(C(N)=O)n2)n1` [Compound 203], for which the IC50 was 11 nM in assay [1] and 332 nM in assay [2] (2 h, 2 h incubation).

As to `Cc1ccc2[nH]ncc2c1-c1cc(-c2ccnc(N3CCCC3)n2)nc(C(N)=O)c1N` [Compound 174], the IC50 in assay [1] worked out at 10 nM; in assay [2] (2 h, 2 h incubation), 939 nM.

Turning to `Cc1ccc2[nH]ncc2c1-c1cc(-c2cccc(OCC3(N)CC3)n2)nc(C(N)=O)c1N` [Compound 353], the IC50 came to 7 nM in assay [1] and 20 nM in assay [2] (2 h, 2 h incubation).

Take `NC(=O)c1nc(-c2ccccc2NC(=O)C2(C(F)(F)F)CC2)nc(-c2c(Cl)ccc3[nH]ncc23)c1N` [Compound 411]: the IC50 was 7 nM in assay [1] and 60 nM in assay [2] (2 h, 2 h compound incubation).

On to `COc1ccc(-c2nc(C(N)=O)c(N)c(-c3c(C)ccc4[nH]ncc34)n2)c(NC(=O)C2(C)CC2)c1` [Compound 455], for which the IC50 turned out to be 6 nM in assay [1] and 21 nM in assay [2] (2 h, 2 h compound incubation).

As to `Cc1ccc2[nH]ncc2c1-c1cc(-c2cccc(OCc3cccnn3)n2)nc(C(N)=O)c1N` (atropisomer, axis not shown) [Compound 260], the IC50 in assay [1] came out at 4 nM; in assay [2] (2 h incubation), 167 nM.

On to `COC(C)COc1nccc(-c2cc(-c3c(C)ccc4[nH]ncc34)c(N)c(C(N)=O)n2)n1` (centres unmarked) [Compound 303], for which the IC50 in assay [1] was determined as 7 nM; in assay [2] (2 h, 2 h incubation), 155 nM.

As to `Cc1ccc2[nH]ncc2c1-c1nc(-c2cccc(C#N)c2)nc(C(N)=O)c1N` [Compound 131, 5-amino-2-(3-cyanophenyl)-6-(5-methyl-1H-indazol-4-yl)pyrimidine-4-carboxamide], the IC50 came to 22 nM in assay [1] and 1370 nM in assay [2] (2 h, 2 h incubation).

Take `Cc1ccc2[nH]ncc2c1-c1nc(-c2ccccc2NC(=O)C(C)(C)F)nc(C(N)=O)c1N` [Compound 434]: the IC50 is 3 nM in assay [1] and 8 nM in assay [2] (2 h, 2 h compound incubation).

On to `Cc1ccc(O)c(C)c1-c1cc(-c2ccnc(N)c2)cc(C(N)=O)c1N` [Compound 64], for which the IC50 in assay [1] was 6 nM; in assay [2] (2 h, 2 h incubation), 260 nM.

For the compound `Cc1ccc2[nH]ncc2c1-c1nc(-c2cccc3cn[nH]c23)nc(C(N)=O)c1N` [Compound 323], the IC50 in assay [1] was 6 nM; in assay [2] (2 h, 2 h incubation) it was 108 nM.

As to `Cc1ccc2[nH]ncc2c1-c1cc(-c2cccc(O[C@H](C)c3ncccn3)n2)nc(C(N)=O)c1N` [Compound 254], the IC50 turned out to be 5 nM in assay [1] and 204 nM in assay [2] (2 h, 2 h incubation).

On to `Cc1ccc2[nH]ncc2c1-c1nc(-c2ccccc2NCC(F)F)cc(C(N)=O)c1N` [Compound 412], for which the IC50 in assay [1] is 4 nM; in assay [2] (2 h, 2 h compound incubation), 223 nM.

As for `Cc1ccc2[nH]ncc2c1-c1nc(-c2cc(F)c(F)cc2NC(=O)C2(C(F)(F)F)CCC2)nc(C(N)=O)c1N` [Compound 470], the IC50 in assay [1] was 18 nM; in assay [2] (2 h, 2 h compound incubation), 1230 nM.

As to `Cc1ccc(O)c(C)c1-c1cc(-c2nc3ccccc3s2)nc(C(N)=O)c1N` [Compound 55], the values for the IC50 in assay [1] and in assay [2] (2 h incubation) were 15 nM and 146 nM, respectively.

Turning to `Cc1ccc2[nH]ncc2c1-c1nc(-c2cccc(N3CCOCC3)c2)nc(C(N)=O)c1N` [Compound 102], the IC50 in assay [1] amounted to 19 nM; in assay [2] (2 h, 2 h incubation), 462 nM.

As to `Cc1ccc2[nH]ncc2c1-c1nc(-c2cccnc2NC2CC(OC(F)F)C2)nc(C(N)=O)c1N` (centres unmarked) [Compound 893], the IC50 in assay [1] was below 3 nM; in assay [2] (2 h, 2 hours with compound) it was 209 nM.

As to `Cc1nccc(Nc2cc(C#N)ccc2-c2nc(C(N)=O)c(N)c(-c3c(C)ccc4[nH]ncc34)n2)n1` [Compound 766], the IC50 was 3 nM in assay [1] and 41 nM in assay [2] (2 h, 2 h compound incubation).

For `Cc1ccc2[nH]ncc2c1-c1nc(-c2ccncc2NC(=O)C(C)(C)C)nc(C(N)=O)c1N` [Compound 483, 5-amino-6-(5-methyl-1H-indazol-4-yl)-2-(3-pivalamidopyridin-4-yl)pyrimidine-4-carboxamide], the IC50 in assay [1] is 2 nM; in assay [2] (2 h, 2 h compound incubation), 2 nM.

In the case of `Cc1ccc2[nH]ncc2c1-c1nc(-c2cccnc2Nc2cccc(F)c2)nc(C(N)=O)c1N` [Compound 600], the IC50 in assay [1] was 10 nM; in assay [2] (2 h, 2 h compound incubation) it was 885 nM.

On to `NC(=O)c1nc(-c2ccccc2)nc(-c2ccc(F)c3[nH]ncc23)c1N` [Compound 121], for which the IC50 in assay [1] is 49 nM; in assay [2] (2 h, 2 h incubation), above 10000 nM.

The values are drawn from patent US20250304537A1 (Repare Therapeutics Inc., priority 2022, published 2025).
